Test results reported in patent US20120071459A1, “BIS-PYRIDYLPYRIDONES AS MELANIN-CONCENTRATING HORMONE RECEPTOR 1 ANTAGONISTS” (GlaxoSmithKline LLC, priority 2009, published 2012).
pIC50: −log10 of the molar value.

Target: T1, hMCHR1 (Homo sapiens, UniProt Q99705)
T1 construct: expressed in transfected cells; host or cells: HEK293
Experiment: MCHR1 pIC50 Determination FLIPR Assay
Format: cell-based
Settings: HEK293 cells stably transfected with hMCHR1; MCH challenge at 4xEC50; in at least one experimental run
Procedure: MCHR1 pIC50 Determination FLIPR™ Assay: HEK293 cells stably transfected with hMCHR1 were propagated as adherent cultures at 37° C. in a humidified incubator. Cells were split 1:8 at 90% confluency two times per week. New cell stocks were recovered from storage every two months. Cells were plated in black 384-well plates (Greiner) 24 hours prior to assay at 15,000 cells/well in 50 μL DMEM/F12, 10% FBS, 2 mM l-glutamine. Compounds to be profiled were prepared by making a stock solution at 3×10^−3M in 100% DMSO. The stock solutions were serially diluted 1:4 in 100% DMSO using JANUS (PerkinElmer) liquid handling instrument to allow for an 11 point curve in singlicate. At the time of the assay, the media was removed from the cell plate by aspiration, followed by the addition of 20 μL of loading buffer (Calcium 4 Kit, […]). Following 50 min incubation at 37° C., 10 μL of compound was added to the plates via the FLIPR™ instrument ([…]). The plates were incubated at room temperature for 15 minutes along with an MCH peptide agonist challenge plate. On the FLIPR™, a basal response was collected over 10 seconds followed by the addition of 10 μL of MCH challenge concentration at 4×EC50. Data was collected over 4 minutes and subjected to a nonlinear regression analysis curve fitting program to generate pIC50s.

T1 sequence (Q99705 whole entry): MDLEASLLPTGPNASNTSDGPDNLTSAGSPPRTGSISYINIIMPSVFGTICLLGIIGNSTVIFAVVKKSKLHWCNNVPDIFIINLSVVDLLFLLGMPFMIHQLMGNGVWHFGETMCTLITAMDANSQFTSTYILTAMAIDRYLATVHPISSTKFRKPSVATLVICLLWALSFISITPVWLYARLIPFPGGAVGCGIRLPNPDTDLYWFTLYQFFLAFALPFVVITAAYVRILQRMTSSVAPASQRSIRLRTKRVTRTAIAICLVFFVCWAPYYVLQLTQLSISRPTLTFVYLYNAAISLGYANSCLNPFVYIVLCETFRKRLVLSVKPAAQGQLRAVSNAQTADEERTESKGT

SMILES | pIC50
O=c1cc(OCc2ccc(Cl)cn2)ccn1-c1ccc(N2CCC3(CC2)CNC3)nc1 [Example 12] | 7.27
O=C1N(c2ccc(-n3ccc(OCc4ccc(Cl)cn4)cc3=O)cn2)CC12CCNCC2 [Example 4, 4-{[(5-chloro-2-pyridinyl)methyl]oxy}-6′-(1-oxo-2,7-diazaspiro[3.5]nonan-2-yl)-2H-1,3′-bipyridin-2-one] | 7.31
O=C1CC2(CCCN(c3ccc(-n4ccc(OCc5ccc(Cl)cn5)cc4=O)cn3)C2)C(=O)N1 (stereo not drawn) [Example 11] | 7.30
